Measurements taken from patent US6861431B2, “Compounds capable of modulating the activity of multidrug transporters and therapeutic use of the same” (The Board of Trustees of the University of Illinois, priority 2001, dated 2005).
Like-named read-outs stand apart in the source and are kept apart here. Starred links: 1 amine or outer side, 2 acyl side, 3 side chain; linkers in the order of their positions; H or OH if unused. Positions of bridges follow the written chain, without caps; N, C: chain ends. Non-standard residues stand in square brackets, D forms with d. Residues, ends and D or L forms follow the SMILES beside them. Chains are numbered I, II in the order given. Actinocin(9to1) = Cc1c2oc3c(C)ccc(C(=O)[*:1])c3nc-2c(C(=O)[*:2])c(N)c1=O; NMeV = CN[C@H](C(=O)O)C(C)C; Sar = CNCC(=O)O

How the values were obtained:
P-gp [1] = experiment: Daunorubicin accumulation in ConA cells; format: cell-based, mouse; conditions: for effect on daunorubicin accumulation: ConA cells, two hours with daunorubicin (500 ng/ml), flow cytometry (FIG. 8)
Method: Drug accumulation and efflux assay. […] For drug efflux assay, cells after drug incubation were washed thoroughly with PBS, incubated in a drug-free media with or without compounds from the chemical library, and harvested at different time points for flow cytometric analysis (18). […]
(§1) ConA cells were incubated two hours with Rho123 ([…]) or daunorubicin (500 ng/ml) in the presence of the identified compounds, and accumulation of the drugs was quantitated by flow cytometry.

ConA cells = experiment: Drug sensitivity (growth inhibition) assay, ConA cells; format: cell-based, mouse; conditions: for Change in sensitivity (x-fold): Compound 102 (10 μM), fold resistance; for Effect of Compound 102 on drug sensitivity of cell lines: ConA (Balb 3T3): P-gp-positive ConA cells, label = drug
Method: Drug sensitivity assays. To estimate drug-mediated growth inhibition, 10^3 cells were plated per well of 96-well plates, and incubated with a range of concentrations of drugs added 24 hours after plating. […] After elution by 1% SDS solution, optical density was determined on a Multiscan Ascent reader (Lybsystems, Helsinki, Finland) at 650 nm.

P-gp [2] = test system: P-gp
Method: Drug sensitivity assays. To estimate drug-mediated growth inhibition, 10^3 cells were plated per well of 96-well plates, and incubated with a range of concentrations of drugs added 24 hours after plating. After 5 to […] of drug treatment, plates were fixed and stained using 2% methylene blue solution in 50% methanol. After elution by 1% SDS solution, optical density was determined on a Multiscan Ascent reader (Lybsystems, Helsinki, Finland) at 650 nm.
(§2) Drug accumulation and efflux assay. […] For drug efflux assay, cells after drug incubation were washed thoroughly with PBS, incubated in a drug-free media with or without compounds from the chemical library, and harvested at different time points for flow cytometric analysis (18).

P-gp [3] = experiment: Rho123 accumulation in ConA cells; format: cell-based, mouse; design: effect on Rho123 efflux/accumulation: dose or concentration left out as unconfirmed; conditions: two hours with Rho123, flow cytometry (FIG. 8)
Method: Screening of a chemical library. Murine fibroblastoid cell line (ConA) was selected as the readout system for screening a chemical library for P-gp activators. […] Rho123, a classic fluorescent P-gp substrate that is detected easily using multichannel fluorimeter in living cells, was used as an efflux indicator. […] Primary screening was performed on ConA cells for compounds that interfere with Adr-induced activation of p53-responsive reporter LacZ gene as previously described (11). To identify P-gp modulators, all “hits” isolated after primary screening were tested for their ability to modulate cellular accumulation of Rho123. Con A cells grown in 96-well plates were incubated 4 hours with 0.5 μM Rho123 in combination with individual library compounds (2 μg/ml (2-5 μM)), and cell fluorescence was analyzed using fluorescent microscopy.
as §2, §1

[4] = label = P-gp substrate drug, three groups

| Molecule | effect on daunorubicin accumulation (P-gp [1]) | Change in sensitivity (x-fold) (ConA cells; ConA cells) | cytotoxicity of the drug in the presence of Compound 102 (P-gp [2]) | Effect of Compound 102 on drug sensitivity of cell lines: ConA (Balb 3T3) (ConA cells) | further results |
| --- | --- | --- | --- | --- | --- |
| COc1ccccc1-c1nc(Cc2ccc(Cl)cc2)no1 [Compound 12, 3-(4-Chloro-benzyl)-5-(2-methoxy-phenyl)-[1,2,4]oxadiazole] |  |  |  |  | stimulation of P-gp-mediated efflux of daunorubicin relative to Rho123 (P-gp [1]; ConA cells (FIG. 8)): more effective |
| CCOC(=O)Cn1c2ccccc2c2nc3cc4ccccc4cc3nc21 [Compound 14, (5,12,13-Triaza-indeno[1,2-b]anthracen-13-yl)-acetic acid ethyl ester] | no effect |  |  |  |  |
| Cc1c2oc3c(C)ccc(C(=O)N[C@@H]4C(=O)N[C@H](C(C)C)C(=O)N5CCC[C@H]5C(=O)N(C)CC(=O)N(C)[C@@H](C(C)C)C(=O)O[C@@H]4C)c3nc-2c(C(=O)N[C@@H]2C(=O)N[C@H](C(C)C)C(=O)N3CCC[C@H]3C(=O)N(C)CC(=O)N(C)[C@@H](C(C)C)C(=O)O[C@@H]2C)c(N)c1=O [Actinomycin D, actinomycin D] (I: T[dV]P[Sar][NMeV] / II: T[dV]P[Sar][NMeV]; ester I:1-I:C, II:1-II:C; linker I:N-II:N via Actinocin(9to1)) |  | 1 x-fold | do not change their cytotoxicity |  | LD50 (ConA cells; ConA cells, drug alone): 20 ng/mL; LD50 comp (ConA cells; ConA cells, drug in the presence of Compound 102 (10 μM)): 20 ng/mL |
| CC[C@]1(O)C[C@@H]2CN(CCc3c([nH]c4ccccc34)[C@@](C(=O)OC)(c3cc4c(cc3OC)N(C)[C@H]3[C@@](O)(C(=O)OC)[C@H](OC(C)=O)[C@]5(CC)C=CCN6CC[C@]43[C@@H]65)C2)C1 [Vinblastine, vinblastine] |  | 0.5 x-fold | more potent | S |  |
| CCOc1ccc(-c2nc3ccc(-c4nc5ccc(N6CCN(C)CC6)cc5[nH]4)cc3[nH]2)cc1 [Hoechst 33342] |  |  |  | S? | cytotoxicity of the drug in the presence of Compound 102 (P-gp [2]; [4]): more potent |
| Cc1ccc2c(C)nc(N/C(N)=N/C(=O)Cc3ccc(Cl)cc3)nc2c1 [Compound 8, N-[2-(4-Chloro-phenyl)-acetyl]-N′-(4,7-dimethyl-quinazolin-2-yl)-guanidine] | weak influence |  |  |  | effect on Rho123 efflux/accumulation (P-gp [3]): relatively effective |
| Oc1ccccc1-c1nc(-c2ccccc2O)n(-c2ccccc2)n1 [Compound 15, 2,2′-(1-phenyl-1H-1,2,4-triazole-3,5-diyl)bis-phenol] | weak influence |  |  |  | effect on Rho123 efflux/accumulation (P-gp [3]): relatively effective |
| CC[C@]1(O)C[C@H]2CN(CCc3c([nH]c4ccccc34)[C@@](C(=O)OC)(c3cc4c(cc3OC)N(C=O)[C@H]3[C@@](O)(C(=O)OC)[C@H](OC(C)=O)[C@]5(CC)C=CCN6CC[C@]43[C@@H]65)C2)C1 [Vincristine, vincristine] |  | 0.5 x-fold | more potent | S |  |
| CC(=O)O[C@H]1C(=O)[C@@]2(C)[C@H]([C@H](OC(=O)c3ccccc3)[C@]3(O)C[C@H](OC(=O)[C@H](O)[C@@H](NC(=O)c4ccccc4)c4ccccc4)C(C)=C1C3(C)C)[C@]1(OC(C)=O)CO[C@@H]1C[C@@H]2O [Taxol, taxol] |  | 0.3 x-fold | more potent | S |  |
| Rhodamine 123 |  |  | less toxic | R |  |
| COc1cc([C@@H]2c3cc4c(cc3[C@@H](O[C@@H]3O[C@@H]5CO[C@@H](C)O[C@H]5[C@H](O)[C@H]3O)[C@H]3COC(=O)[C@H]23)OCO4)cc(OC)c1O [Etoposide, etoposide] |  | 1.5 x-fold | less toxic | Minor R |  |
| CN[C@H]1CCc2cc(OC)c(OC)c(OC)c2-c2ccc(OC)c(=O)cc21 [Colcemide, colcemid] |  |  |  |  | cytotoxicity of the drug in the presence of Compound 102 (P-gp [2]; [4]): do not change their cytotoxicity |
| COc1cc2c(c(OC)c1OC)-c1ccc(OC)c(=O)cc1[C@@H](NC(C)=O)CC2 [Colchicine, colchicine] |  |  |  | S |  |
| Cc1ccc(OCC(=O)Nc2ccc(O)c(-c3nc4ccccc4o3)c2)cc1 [Compound 10, N-(3-Benzooxazol-2-yl-4-hydroxy-phenyl)-2-p-tolyloxy-acetamide] | weak influence |  |  |  | effect on Rho123 efflux/accumulation (P-gp [3]): relatively effective |
| gramicidin D [Gramicidine D] |  |  |  | S | cytotoxicity of the drug in the presence of Compound 102 (P-gp [2]; [4]): more potent |
| C=C1[C@@H](C)[C@H]2[C@H](Cc3ccccc3)NC(=O)[C@]23[C@H](OC(C)=O)/C=C/[C@@](C)(O)C(=O)[C@@H](C)C/C=C/[C@H]3[C@@H]1O [cytochalasin D] |  |  |  |  | cytotoxicity of the drug in the presence of Compound 102 (P-gp [2]; [4]): do not change their cytotoxicity |
| COc1ccc(C[C@H](N)C(=O)N[C@H]2[C@@H](O)[C@H](n3cnc4c(N(C)C)ncnc43)O[C@@H]2CO)cc1 [Puromycin, puromycin] |  | 1 x-fold | do not change their cytotoxicity |  |  |
| Cc1cc(OCC(=O)Nc2ccc3nn(-c4ccccc4)nc3c2)cc(C)c1Cl [Compound 7, 2-(4-Chloro-3,5-dimethyl-phenoxy)-N-(2-phenyl-2H-benzotriazol-5-yl)-acetamide] | weak influence |  |  |  | effect on Rho123 efflux/accumulation (P-gp [3]): relatively effective |
| Cc1cc(C)n(CC(O)Cn2c3ccccc3c3ccccc32)n1 (centres unmarked) [Compound 2, 1-Carbazol-9-yl-3-(3,5-dimethyl-pyrazol-1-yl)-propan-2-ol] | weak influence |  |  |  | effect on Rho123 efflux/accumulation (P-gp [3]): relatively effective |
| COc1cccc2c1C(=O)c1c(O)c3c(c(O)c1C2=O)C[C@@](O)(C(C)=O)C[C@@H]3O[C@H]1C[C@H](N)[C@H](O)[C@H](C)O1 [Daunorubicin, daunorubicin] |  | 2.5 x-fold | less toxic | R |  |
| COc1cc2cnc3c(c(Cc4ccccc4)nn3-c3ccccc3)c2cc1OC [Compound 9, 1-Benzyl-7,8-dimethoxy-3-phenyl-3H-pyrazolo[3,4-c]isoquinoline] | weak influence |  |  |  | effect on Rho123 efflux/accumulation (P-gp [3]): relatively effective |
